This passage reports IC50 results from BindingDB's records for doi:10.1021/jm500801r (Southern Research Institute, 2014).

This experiment is described as follows: Antagonist activity against human D3R expressed in CHO cells assessed as inhibition of quinpirole-induced mitogenesis after 16 hrs by [3H]thymidine uptake assay.
By IC50 is commonly meant the concentration that gives 50% inhibition. Turning to `O=C(NCCCCN1CCN(c2ncnc3ccccc23)CC1)c1cn2ccccc2n1`, the IC50 is 940 nM.
Consider `COc1ccccc1N1CCN(CCCCNC(=O)c2cn3ccccc3n2)CC1`, for which the IC50 is 3 nM.
The result for `O=C(NCCCCN1CCN(c2cccc(Cl)c2Cl)CC1)c1cn2ccccc2n1` reads 7.2 nM.
In the case of `CC(C)(C)c1nc(N2CCN(CCCCNC(=O)c3nc4ccccc4[nH]3)CC2)cc(C(F)(F)F)n1`, the IC50 stood at 208 nM.
